From patent US11311560B2, “Cyclic plasmenylethanolamines” (MED-LIFE DISCOVERIES LP, priority 2017, dated 2022)
Entries after “also recorded” stand apart in the source; their conditions may differ.

Key:
[1] = tested on: Pex7 hypomorphic animals; conditions: 50 mg/kg/day for 2 months; cited from earlier work
[2] = tested on: Pex7 null animals; conditions: very high doses (over 3000 mg/kg); cited from earlier work
[3] = tested on: Pex7 hypomorph/null mice; test: 4 weeks oral treatment of Pex7 hypomorph/null animals: plasmalogen levels in plasma and tissues; format: in vivo, mouse; conditions: 50 mg/kg oral gavage, 5 days per week
From the text: (§1) The Pex7 hypomorph/null model is a hypomorphic (B6;129S6-Pex7^tm2.3Brav/s9) mouse model on a mixed background (C57BL/6NCrl and 129S6/SvEvTac). The hypomorphic allele in Pex7 hypomorph/null was generated by inserting an inverse neo cassette into intron 2 and lox P sites surrounding exon 3. The Pex7 null allele was generated using (B6.C-Tg(cmv-cre)1Cgn/J) mouse. The Pex7 hypomorph/null mouse model has 90% survival, 0.016-0.257% of wild type Pex7 mRNA levels and 20-30% plasmalogen levels Pex7 hypomoprh/null mice (3-4 months); and wild-type animals, males and females included in treatments and behavioral tests. Pex7 hypomorph/null mice were randomly assigned, after a baseline open field test, into 3 treatment groups: PPI-1040, PPI-1011, and vehicle controls, n=6 mice per group). PPI-1011 or PPI-1040 at 50 mg/kg was given by oral gavage 5 days per week (Monday-Friday) for 4 weeks. During the treatment period, animals were weighed weekly and observed for signs of distress. The open field test was performed at the end of treatment. To avoid selection bias, data analysis was performed only at the study end. Animals were sacrificed after a 24-hour post the last dose.
Tissue samples frozen by submersion in liquid nitrogen were homogenized using the Covaris Cryoprep resulting in a fine powder. The powder was then aliquoted using anti-static polypropylene disposable milligram scoops (TWD Tradewinds) resulting in 4-6 mg of tissue per 1.4 ml Thermo matrix tubes. Weights were recorded and metabolite levels were normalized per mg of tissue. HPLC grade water (50 μl) was added into each tube and samples were snap frozen in liquid nitrogen and then stored at −80° C. until extraction. On the day of the extraction, tissue samples were thawed to room temperate and sonicated for 15 mins in an ice bath before mixing at 2000 rpm for a 5 minute and then adding 600 μL of ethyl acetate. Lipids were extracted into ethyl acetate by mixing at 1750 rpm for 1 hr followed by a 10 min centrifugation at 3500 rpm to obtain a clear ethyl acetate layer. Tissue lipid extracts were diluted into an ethyl acetate stock (brain regions diluted 1:10, peripheral tissues 1:5) containing labeled internal standard [^13C-PlsEtn (C37^13C6H74NO7P). Water (40 μL) was added to the diluted extracts and samples were stirred at 1500 rpm for 1 hr followed by a 2 min centrifugation at 3500 rpm.
Plasma extraction was performed on 20 μL aliquots in 1.4 ml Thermo matrix tubes. Lipids were extracted by adding HPLC grade water (50 μl) and ethyl acetate containing labeled internal standard [^13C-PlsEtn (C37^13C6H74NO7P) at 0.2 μg/mL (500 μL) to each plasma sample and then mixing at 1750 rpm for 1 hr followed by a 2 min centrifugation at 3500 rpm for phase separation.
A 100 μL aliquot of the ethyl acetate layer was analyzed using FI-MS/MS on a API4000™ mass spectrometer (Applied Biosystems) coupled with Agilent 1100 HPLC pump and auto sampler. Each transition was scanned for 50 ms with a total acquisition time per sample of 2 min. ethyl acetate:methanol:water ratio of 80:15:5 at a flow rate of 600 μL/min was used as the mobile phase. All standards and stable isotopes used were >95% pure and manufactured by Med-Life Discoveries LP. All the solvents used above were HPLC grade. All samples were analyzed in triplicate to control for any variation resulting from instrument variability. Stable isotope ratios for each analyte were calculated for all tissue and plasma samples (Table 2).

[4] = tested on: Pex7 homozygous hypomorphic animals (Pex7^neo/neo); test: 2 week comparison of plasmalogen precursors: plasmalogen levels in plasma and liver (LC-MS); format: in vivo, mouse
Method: Pex7 homozygous hypomorphic animals (Pex7^neo/neo) were used as a model of rhizomelic chondrodysplasia punctata (RCDP). Mice were dosed with either PPI-1011 or PPI-1040 at equimolar concentrations of 100 mg/Kg and 89.7 mg/Kg respectively. PPI-1011 was formulated in Neobee M-5, at a concentration of 12.5 mg/mL and stored at −20° C. until the first treatment day after which point the remaining formulation was stored at 4° C. Oral gavage volumes were adjusted by mouse weight to ensure a 100 mg/kg dose. PPI-1040 was stored in a sealed ampoule in solution with dichloromethane under argon gas until immediately before use. At time of treatment the ampoule was opened and dichloromethane was evaporated off under nitrogen gas for 10 minutes. Neobee M-5 was then added and the solution and vortexed to generate a 22.4 mg/mL formulation. Animals were dosed via intraperitoneal injections with doses adjusted by weight to ensure an 89.7 mg/Kg dose to each animal. Animals were sacrificed 24 hours after the ninth treatment (week 1-Monday to Friday and week 2-Monday to Thursday). Blood samples were collected in EDTA tubes and then spun down in a clinical centrifuge. Plasma samples were stored at −80° C. until thawed for analysis. Tissue samples were harvested and flash frozen in liquid nitrogen and then stored at −80° C. All tissue samples were homogenized using liquid nitrogen, generating a fine powder.
Plasma aliquots of 20 μL were analyzed, while tissues were aliquoted with anti-static polypropylene disposable milligram scoops prior to analysis. Water (200 μL) was added and samples were ice bath sonicated for 30 mins prior to the addition of 600 μL of ethyl acetate. Samples were mixed at 2000 rpm for 15 mins followed by a 10 min centrifugation at 3500 rpm. Tissue samples were diluted into an ethyl acetate (1:4) containing labeled internal standards [^13C-PlsEtn (C37^13C6H74NO7P) and ^13C-PtdEtn (C24^13C19H74NO8P)]. Water (80 μL) was added and samples were again stirred at 2000 rpm for 15 mins followed by a 2 min centrifugation at 3500 rpm. High-throughput analysis method was based on multiple reaction monitoring of one parent/fragment transition for the ion pairs, performed using liquid chromatography-mass spectrometry.

[5] = healthy animals; cited from earlier work
[6] = tested on: Pex7 hypomorph/null mice; test: Open field test after 4 weeks oral treatment; format: in vivo, mouse; conditions: 50 mg/kg oral gavage, 5 days per week, 5 minutes test
From the text: as §1
The open field test is a behavioral test used to evaluate the general locomotor activity, exploratory and anxiety-like behaviour of mice in response to a novel environment. The animal is placed inside a custom made square, gray acrylic box measuring 40×40×40 cm and allowed to move freely for 5 minutes while being recorded by an overhead camera (camera model). The footage was analyzed by an automated tracking system (Any-maze Video Tracking Software, Stoelting Co, Wood Dale, Ill., USA), for total distance traveled (meters) & activity (mobility in seconds) time. The total distance traveled is the total distance that animal traveled during the test and the activity measures the amount of time the animal was active during the test.

[7] = tested on: Pex7 hypomorphic mice; conditions: 13C-labeled version of PPI-1011; cited from earlier work
[8] = PPI-1011 100 mg/Kg oral or PPI-1040 89.7 mg/Kg intraperitoneal, 2 weeks

## CCCCCCCCCCCCCCCCCCOCC(O)CO (racemic) [Batyl alcohol, 1-O-octadecyl-rac glycerol]
[1]
  clinical improvement: not associated with clinical improvement
  plasmalogen content in red blood cells: partial increase
[2]
  plasmalogen levels in brain and nervous system tissues: very limited increases
  plasmalogen levels in erythrocytes and peripheral tissues: augmentation of plasmalogen levels in erythrocytes and peripheral tissues

## CC/C=C\C/C=C\C/C=C\C/C=C\C/C=C\C/C=C\CCC(=O)OC(COCCCCCCCCCCCCCCCC)COC(=O)CCCC[C@@H]1CCSS1 (stereo partly shown) [PPI-1011, reference compound]
[3]
  liver plasmalogen levels: did not increase the levels of any plasmalogen species in the liver
  plasma plasmalogen levels (all species measured): did not result in significant augmentation of any plasmalogen species measured; also recorded: ineffective at augmenting plasmalogen levels; also recorded: significantly below baseline
  plasmalogen levels in tissues (peripheral and brain): did not increase the levels of any plasmalogen species in any of the tissues tested
[4]; PPI-1011 100 mg/Kg oral gavage, 2 weeks (9 treatments)
  levels of the target plasmalogen (16:0/22:6) in the plasma: increase observed
[4]; [8]
  16:0 plasmalogen pool in liver: no increase in this pool was observed
  target plasmalogen (16:0/22:6) levels in liver: unable to augment levels to control levels
[5]
  oral bioavailability: orally bioavailable
  plasma and tissue PlsEtn levels: capable of augmenting plasma and tissue PlsEtn levels
[6]
  open field: time active: did not result in a decrease in activity levels
  open field: total distance traveled: did not result in a decrease in activity levels
[7]
  incorporation of labeled plasmalogen into nervous system tissue: low
  incorporation of labeled plasmalogen into tissues: incorporated into peripheral tissues, as well as the neocortex and eye
